Source: PMC11026380, “Statine-based peptidomimetic compounds as inhibitors for SARS-CoV-2 main protease (SARS-CoV‑2 Mpro)” (Scientific Reports, 2024)
“Also recorded” adds a separate entry of the source.

biological target: SARS-CoV-2 Mpro (Severe acute respiratory syndrome coronavirus 2, UniProt P0DTD1); assay: biochemical; settings: FRET, enzyme 1.5 μM, substrate 50 μM, 15 min preincubation at 37 °C

Compound | IC50 [µM] | IC50 (µM)
COC(=O)[C@H](CO)NC(=O)C[C@H](O)[C@H](Cc1ccccc1)NC(=O)OC(C)(C)C [Compound 7a] | > 1000 | 
COC(=O)[C@H](Cc1ccc(O)cc1)NC(=O)C[C@H](O)[C@H](Cc1ccccc1)NC(=O)OC(C)(C)C [Compound 7b] | > 1000 | 
COC(=O)[C@@H](O)CNC(=O)C[C@H](O)[C@H](Cc1ccccc1)NC(=O)OC(C)(C)C [Compound 7d] | 0.924 | sub-micromolar range
COC(=O)[C@H](COC(C)=O)NC(=O)C[C@H](OC(C)=O)[C@H](Cc1ccccc1)NC(=O)OC(C)(C)C [Compound 8a] | 1000 | 
COC(=O)[C@H](Cc1ccc(OC(C)=O)cc1)NC(=O)C[C@H](OC(C)=O)[C@H](Cc1ccccc1)NC(=O)OC(C)(C)C [Compound 8b] | > 1000 | 
COC(=O)[C@@H](NC(=O)C[C@H](OC(C)=O)[C@H](Cc1ccccc1)NC(=O)OC(C)(C)C)[C@H](C)OC(C)=O [Compound 8c] | 2.45 | 
COC(=O)[C@H](CC(C)C)NC(=O)C[C@H](OC(C)=O)[C@H](Cc1ccccc1)NC(=O)OC(C)(C)C [Compound 8d] | 0.391 | 
COC(=O)[C@H](Cc1ccccc1)NC(=O)C[C@H](OC(C)=O)[C@H](Cc1ccccc1)NC(=O)OC(C)(C)C [Compound 8e] | 0.606 | sub-micromolar range
COC(=O)[C@@H](NC(=O)C[C@H](OC(C)=O)[C@H](Cc1ccccc1)NC(=O)OC(C)(C)C)C(C)C [Compound 8g] | > 1000 | 
COC(=O)[C@H](CO)NC(=O)C[C@H](O)[C@@H](N)Cc1ccccc1.O=C(O)C(F)(F)F [Compound 9a] | > 1000 | 
COC(=O)[C@H](Cc1ccc(O)cc1)NC(=O)C[C@H](O)[C@@H](N)Cc1ccccc1.O=C(O)C(F)(F)F [Compound 9b] | > 1000 | 
COC(=O)[C@H](CC(C)C)NC(=O)C[C@H](O)[C@@H](N)Cc1ccccc1.O=C(O)C(F)(F)F [Compound 9d] | 778 | 
COC(=O)[C@H](Cc1ccccc1)NC(=O)C[C@H](O)[C@@H](N)Cc1ccccc1 [Compound 9e] | > 1000 | 
COC(=O)[C@@H]1CCCN1C(=O)C[C@H](O)[C@@H](N)Cc1ccccc1 [Compound 9f] | > 1000 | 
COC(=O)[C@@H](NC(=O)C[C@H](O)[C@@H](N)Cc1ccccc1)C(C)C.O=C(O)C(F)(F)F [Compound 9g] | 0.617 | sub-micromolar range
CC(C)(C)OC(=O)N[C@@H](Cc1ccccc1)[C@@H](O)CC(=O)N[C@@H](Cc1ccccc1)C(=O)NN [Compound 10] | > 1000 | 

same assay, conditions: efficacy compared to negative control (vehicle, DMSO); compounds 0.001 to 1000 μM; enzyme 1.5 μM, substrate 50 μM

Compound | Maximum inhibition (%)
COC(=O)[C@@H](NC(=O)CC(O)C(Cc1ccccc1)NC(=O)OC(C)(C)C)C(C)C (some centres unmarked) [Compound 7h] | < 50

same assay, conditions: read-out: Maximum inhibition (%), efficacy compared to negative control (vehicle, DMSO); compounds 0.001 to 1000 μM; enzyme 1.5 μM, substrate 50 μM

Compound | Emax [%]
COC(=O)[C@H](CO)NC(=O)C[C@H](O)[C@H](Cc1ccccc1)NC(=O)OC(C)(C)C [Compound 7a] | 70
COC(=O)[C@H](Cc1ccc(O)cc1)NC(=O)C[C@H](O)[C@H](Cc1ccccc1)NC(=O)OC(C)(C)C [Compound 7b] | 70
COC(=O)[C@@H](NC(=O)C[C@H](O)[C@H](Cc1ccccc1)NC(=O)OC(C)(C)C)[C@H](C)O [Compound 7c] | < 50
COC(=O)[C@@H](O)CNC(=O)C[C@H](O)[C@H](Cc1ccccc1)NC(=O)OC(C)(C)C [Compound 7d] | > 70
COC(=O)[C@H](CC(C)C)NC(=O)C[C@H](O)[C@H](Cc1ccccc1)NC(=O)OC(C)(C)C [Compound 7e] | < 50
COC(=O)[C@H](COC(C)=O)NC(=O)C[C@H](OC(C)=O)[C@H](Cc1ccccc1)NC(=O)OC(C)(C)C [Compound 8a] | 50
COC(=O)[C@H](Cc1ccc(OC(C)=O)cc1)NC(=O)C[C@H](OC(C)=O)[C@H](Cc1ccccc1)NC(=O)OC(C)(C)C [Compound 8b] | 65
COC(=O)[C@@H](NC(=O)C[C@H](OC(C)=O)[C@H](Cc1ccccc1)NC(=O)OC(C)(C)C)[C@H](C)OC(C)=O [Compound 8c] | ≥ 60
COC(=O)[C@H](CC(C)C)NC(=O)C[C@H](OC(C)=O)[C@H](Cc1ccccc1)NC(=O)OC(C)(C)C [Compound 8d] | ≥ 60
COC(=O)[C@H](Cc1ccccc1)NC(=O)C[C@H](OC(C)=O)[C@H](Cc1ccccc1)NC(=O)OC(C)(C)C [Compound 8e] | > 70
COC(=O)[C@@H](NC(=O)C[C@H](OC(C)=O)[C@H](Cc1ccccc1)NC(=O)OC(C)(C)C)C(C)C [Compound 8g] | 66
COC(=O)[C@H](CO)NC(=O)C[C@H](O)[C@@H](N)Cc1ccccc1.O=C(O)C(F)(F)F [Compound 9a] | 57
COC(=O)[C@H](Cc1ccc(O)cc1)NC(=O)C[C@H](O)[C@@H](N)Cc1ccccc1.O=C(O)C(F)(F)F [Compound 9b] | 52
COC(=O)[C@H](CC(C)C)NC(=O)C[C@H](O)[C@@H](N)Cc1ccccc1.O=C(O)C(F)(F)F [Compound 9d] | 58
COC(=O)[C@H](Cc1ccccc1)NC(=O)C[C@H](O)[C@@H](N)Cc1ccccc1 [Compound 9e] | 51
COC(=O)[C@@H]1CCCN1C(=O)C[C@H](O)[C@@H](N)Cc1ccccc1 [Compound 9f] | 68
COC(=O)[C@@H](NC(=O)C[C@H](O)[C@@H](N)Cc1ccccc1)C(C)C.O=C(O)C(F)(F)F [Compound 9g] | > 70
CC(C)(C)OC(=O)N[C@@H](Cc1ccccc1)[C@@H](O)CC(=O)N[C@@H](Cc1ccccc1)C(=O)NN [Compound 10] | 61

test system: not given; assay: not given; settings: not given

Compound | melting point [°C]
COC(=O)[C@H](Cc1ccccc1)NC(=O)C[C@H](O)[C@H](Cc1ccccc1)NC(=O)OC(C)(C)C | 79 to 80
COC(=O)[C@@H]1CCCN1C(=O)C[C@H](OC(C)=O)[C@H](Cc1ccccc1)NC(=O)OC(C)(C)C | 90 to 92
COC(=O)[C@H](Cc1ccc(O)cc1)NC(=O)C[C@H](O)[C@H](Cc1ccccc1)NC(=O)OC(C)(C)C [Compound 7b] | 60 to 62
COC(=O)[C@@H](NC(=O)C[C@H](O)[C@H](Cc1ccccc1)NC(=O)OC(C)(C)C)[C@H](C)O [Compound 7c] | 124 to 125
COC(=O)[C@@H](O)CNC(=O)C[C@H](O)[C@H](Cc1ccccc1)NC(=O)OC(C)(C)C [Compound 7d] | 65 to 66
COC(=O)[C@H](COC(C)=O)NC(=O)C[C@H](OC(C)=O)[C@H](Cc1ccccc1)NC(=O)OC(C)(C)C [Compound 8a] | 97 to 98
COC(=O)[C@H](Cc1ccc(OC(C)=O)cc1)NC(=O)C[C@H](OC(C)=O)[C@H](Cc1ccccc1)NC(=O)OC(C)(C)C [Compound 8b] | 88 to 89
COC(=O)[C@@H](NC(=O)C[C@H](OC(C)=O)[C@H](Cc1ccccc1)NC(=O)OC(C)(C)C)[C@H](C)OC(C)=O [Compound 8c] | 54 to 55
COC(=O)[C@H](CC(C)C)NC(=O)C[C@H](OC(C)=O)[C@H](Cc1ccccc1)NC(=O)OC(C)(C)C [Compound 8d] | 94 to 95
COC(=O)[C@H](Cc1ccccc1)NC(=O)C[C@H](OC(C)=O)[C@H](Cc1ccccc1)NC(=O)OC(C)(C)C [Compound 8e] | 89 to 91
COC(=O)[C@H](CO)NC(=O)C[C@H](O)[C@@H](N)Cc1ccccc1.O=C(O)C(F)(F)F [Compound 9a] | 120 to 121
COC(=O)[C@H](Cc1ccc(O)cc1)NC(=O)C[C@H](O)[C@@H](N)Cc1ccccc1.O=C(O)C(F)(F)F [Compound 9b] | 98 to 99
COC(=O)[C@H](CC(C)C)NC(=O)C[C@H](O)[C@@H](N)Cc1ccccc1.O=C(O)C(F)(F)F [Compound 9d] | 147 to 148

test system: SARS-CoV-2 B.1 lineage isolate; assay: not given; settings: not given

Compound | Inhibition of SARS-CoV-2 replication
COC(=O)[C@@H](O)CNC(=O)C[C@H](O)[C@H](Cc1ccccc1)NC(=O)OC(C)(C)C [Compound 7d] | roughly 80%
COC(=O)[C@H](Cc1ccccc1)NC(=O)C[C@H](OC(C)=O)[C@H](Cc1ccccc1)NC(=O)OC(C)(C)C [Compound 8e] | roughly 80%
COC(=O)[C@@H](NC(=O)C[C@H](O)[C@@H](N)Cc1ccccc1)C(C)C.O=C(O)C(F)(F)F [Compound 9g] | roughly 80%

test system: SARS-CoV-2; assay: not given; settings: comparator values quoted in text; cited from earlier work

Compound | EC50 [µM]
CC(C)C(=O)OC[C@H]1O[C@@H](n2ccc(NO)nc2=O)[C@H](O)[C@@H]1O [molnupiravir] | 1.97

test system: SARS-CoV-2 B.1 lineage isolate; assay: in vitro; settings: human

Compound | selectivity ratio
COC(=O)N[C@H](C(=O)N[C@@H](Cc1ccccc1)[C@@H](O)CN(Cc1ccc(-c2ccccn2)cc1)NC(=O)[C@@H](NC(=O)OC)C(C)(C)C)C(C)(C)C [ATV, atazanavir, reference compound] | > 131
COC(=O)[C@@H](O)CNC(=O)C[C@H](O)[C@H](Cc1ccccc1)NC(=O)OC(C)(C)C [Compound 7d] | > 114
COC(=O)[C@H](Cc1ccccc1)NC(=O)C[C@H](OC(C)=O)[C@H](Cc1ccccc1)NC(=O)OC(C)(C)C [Compound 8e] | > 112
COC(=O)[C@@H](NC(=O)C[C@H](O)[C@@H](N)Cc1ccccc1)C(C)C.O=C(O)C(F)(F)F [Compound 9g] | > 132

test system: not listed separately; assay: in vitro; settings: human

Compound | CC50 at 72 h [µM]
COC(=O)[C@@H](O)CNC(=O)C[C@H](O)[C@H](Cc1ccccc1)NC(=O)OC(C)(C)C [Compound 7d] | > 200
COC(=O)[C@H](Cc1ccccc1)NC(=O)C[C@H](OC(C)=O)[C@H](Cc1ccccc1)NC(=O)OC(C)(C)C [Compound 8e] | > 200

test system: SARS-CoV-2 B.1 lineage isolate; assay: microbe, parasite or virus in culture; settings: Severe acute respiratory syndrome coronavirus 2, Calu-3, 24 h

Compound | EC50 [µM]
COC(=O)N[C@H](C(=O)N[C@@H](Cc1ccccc1)[C@@H](O)CN(Cc1ccc(-c2ccccn2)cc1)NC(=O)[C@@H](NC(=O)OC)C(C)(C)C)C(C)(C)C [ATV, atazanavir, reference compound] | 1.53 ± 0.3
COC(=O)[C@@H](O)CNC(=O)C[C@H](O)[C@H](Cc1ccccc1)NC(=O)OC(C)(C)C [Compound 7d] | 1.76 ± 0.3
COC(=O)[C@H](Cc1ccccc1)NC(=O)C[C@H](OC(C)=O)[C@H](Cc1ccccc1)NC(=O)OC(C)(C)C [Compound 8e] | 1.79 ± 0.1
COC(=O)[C@@H](NC(=O)C[C@H](O)[C@@H](N)Cc1ccccc1)C(C)C.O=C(O)C(F)(F)F [Compound 9g] | 1.51 ± 0.2

test system: not listed separately; assay: Cytotoxicity by methylene blue viability assay; settings: human

Compound | CC50 at 72 h [µM]
COC(=O)N[C@H](C(=O)N[C@@H](Cc1ccccc1)[C@@H](O)CN(Cc1ccc(-c2ccccn2)cc1)NC(=O)[C@@H](NC(=O)OC)C(C)(C)C)C(C)(C)C [ATV, atazanavir, reference compound] | > 200
COC(=O)[C@@H](NC(=O)C[C@H](O)[C@@H](N)Cc1ccccc1)C(C)C.O=C(O)C(F)(F)F [Compound 9g] | > 200

test system: Calu-3 cells; assay: Cytotoxicity by methylene blue viability assay; settings: Calu-3 cells

Compound | Cytotoxicity (in words)
COC(=O)[C@@H](NC(=O)C[C@H](O)[C@@H](N)Cc1ccccc1)C(C)C.O=C(O)C(F)(F)F [Compound 9g] | no cytotoxicity; also recorded: non-cytotoxic
